What was measured:
Assay type in all cases: in vivo
Conditions in all cases: 20 days after
[1] = tested on: phytopathogenic Fusarium (Fusarium sp.); assay: Test Example 23: soybean seed treatment, Fusarium pot test
Protocol: (§1) If the effect by the combination of two active ingredients is greater than that of the estimated value E, which is calculated by the Colby's equation as follows, the effect is regarded as synergistic. E=X+Y−X·Y/100 wherein, E=Control value when using the mixture of the active ingredients A and B at the concentrations m and n (amount of the active ingredient), respectively. X=Control value when using the active ingredient A at the concentration m (amount of the active ingredient). Y=Control value when using the active ingredient B at the concentration n (amount of the active ingredient).
Boscalid was dissolved in acetone/Tween 20 (weight ratio=95:5) to prepare a chemical liquid. In a rotary seed treatment machine (trade name: HEGE11, manufactured by WINTERSTEIGER), soybean seeds (variety:“Hatayutaka”) were treated by smearing treatment using the chemical liquid and the flowable formulation of the present bacterial strain obtained in Formulation Example 13 and sedaxane flowable formulation (43.7% flowable formulation, trade name: Vibrance, Syngenta Crop Protection LLC), so that the soybean seeds retain the bacteria, sedaxane and boscalid in the amount shown in Table 8.
Cultivation was carried out in a greenhouse under irrigation (“treated compartment”). The plants were investigated 20 days after for the number of diseased plants, and the disease incidence was calculated by the following “Equation 1”. Also, similar procedures were conducted using untreated soybean seeds, instead of the treated soybean seeds, as described above for the treated compartment (“untreated compartment”).
The plants were investigated 20 days after for the number of diseased plants, and the disease incidence was calculated by the following “Equation 1”. The control value of the treated compartment was calculated by the following equation “Equation 2”, based on the disease incidences of the treated compartment and the untreated compartment. Disease incidence (%)=100×(number of diseased plant/total number of seeded seeds): Equation 1 Control value (%)=100×[(disease incidence in untreated compartment−disease incidence in treated compartment)/disease incidence in untreated compartment]: Equation 2

[2] = tested on: damping-off fungus (Rhizoctonia solani); assay: Test Example 21: corn seed treatment, damping-off pot test
Protocol: A chemical liquid wherein penflufen is dissolved in acetone/Tween 20 (weight ratio=95:5) and a chemical liquid wherein fluxapyroxad is dissolved in acetone/Tween 20 (weight ratio=95:5) were prepared independently. In a rotary seed treatment machine (trade name: HEGE11, manufactured by WINTERSTEIGER), corn seeds (variety: yellow dent corn) were treated by smearing treatment using one of these chemical liquid and the flowable formulation of the present bacterial strain obtained in Formulation Example 13, so that the corn seeds retain the present bacterial strain and/or the compound in the amount shown in Table 6.
Cultivation was carried out in a greenhouse under irrigation (“treated compartment”). The plants were investigated 20 days after for the number of diseased plants, and the disease incidence was calculated by the following “Equation 1”. Similar procedures were conducted using untreated corn seeds, instead of the treated corn seeds, as described above for the treated compartment (“untreated compartment”). The plants were investigated 20 days after for the number of diseased plants, and the disease incidence was calculated by the following “Equation 1”. The control value of the treated compartment was calculated by the following equation “Equation 2”, based on the disease incidences of the treated compartment and the untreated compartment. Disease incidence (%)=100×(number of diseased plant/total number of seeded seeds): Equation 1 Control value (%)=100×[(disease incidence in untreated compartment−disease incidence in treated compartment)/disease incidence in untreated compartment]: Equation 2
as §1

[3] = tested on: phytopathogenic Fusarium (Fusarium sp.); assay: Test Example 22: soybean seed treatment, Fusarium pot test
Protocol: If the effect by the combination of two active ingredients is greater than that of the estimated value E, which is calculated by the Colby's equation as follows, the effect is regarded as synergistic. E=X+Y−X·Y/100 wherein, E=Control value when using the mixture of the active ingredients A and B at the concentrations m and n (amount of the active ingredient), respectively. X=Control value when using the active ingredient A at the concentration m (amount of the active ingredient). Y=Control value when using the active ingredient B at the concentration n (amount of the active ingredient). […]
Cultivation was carried out in a greenhouse under irrigation (“treated compartment”). The plants were investigated 20 days after for the number of diseased plants, and the disease incidence was calculated by the following “Equation 1”. […] The plants were investigated 20 days after for the number of diseased plants, and the disease incidence was calculated by the following “Equation 1”. The control value of the treated compartment was calculated by the following equation “Equation 2”, based on the disease incidences of the treated compartment and the untreated compartment. […]

[4] = soybean seeds retaining 0.05 g/Kg seeds of compound alone
[5] = corn seeds retaining 0.005 g/Kg seeds of compound alone

Q: With `O=C(Nc1ccccc1-c1ccc(Cl)cc1)c1cccnc1Cl` [Boscalid, boscalid] as the compound, how does the “Controlling Effect” value [1, 4] read?
A: 23%

Q: What about the “Controlling Effect” value ([1]; soybean seeds retaining 0.1 g/Kg seeds of compound alone) of the same compound?
A: 47%

Q: Which “Controlling Effect” value [2, 5] does the source give for `Cc1nn(C)c(F)c1C(=O)Nc1ccccc1C(C)CC(C)C` (stereo not shown) [Penflufen, penflufen] here?
A: 25%

Q: And the “Controlling Effect” value ([2]; corn seeds retaining 0.01 g/Kg seeds of compound alone)?
A: 42%

Q: Which “Controlling Effect” value ([1]; soybean seeds retaining 0.005 g/Kg seeds of compound alone) does the source give for `Cn1cc(C(=O)Nc2ccccc2C2CC2C2CC2)c(C(F)F)n1` (stereo not shown) [Sedaxane, sedaxane] here?
A: 32%

Q: And the “Controlling Effect” value ([1]; soybean seeds retaining 0.01 g/Kg seeds of compound alone)?
A: 35%

Q: How did the “Controlling Effect” value ([2]; corn seeds retaining 0.0025 g/Kg seeds of compound alone) turn out when `Cn1cc(C(=O)Nc2ccccc2-c2cc(F)c(F)c(F)c2)c(C(F)F)n1` [Fluxapyroxad, fluxapyroxad] was run?
A: 31%

Q: And the “Controlling Effect” value [2, 5]?
A: 39%

Q: How did the “Controlling Effect” value ([3]; soybean seeds retaining 0.025 g/Kg seeds of compound alone) turn out when `O=C(NCCc1ncc(C(F)(F)F)cc1Cl)c1ccccc1C(F)(F)F` [Fluopyram, fluopyram] was run?
A: 29%

Q: And the “Controlling Effect” value [3, 4]?
A: 44%

Reference: US10463048B2, “Plant disease control composition and plant disease control method” (SUMITOMO CHEMICAL COMPANY, LIMITED, priority 2015, dated 2019)
